Measurements: patent publication US20180238860A1, “INDIVIDUAL METHOD PREDICTIVE OF THE DNA-BREAKING GENOTOXIC EFFECTS OF CHEMICAL OR BIOCHEMICAL AGENTS” (priority 2015, published 2018)

Key:
Assay type in all cases: cell-based, human
HMEC cells [1] = experiment: pH2AX foci 24 h after contacting, Table 4 lower part (HMEC endothelial cells); conditions: line cell blank (below Hasp), 24 hours after contacting
Experimental: (§1) In one embodiment, on receipt, the tissue sample (typically the biopsy) is established in the form of an amplifiable cell line without a viral or chemical transformation agent according to an ancillary procedure well known to culture laboratories, as underlined by the publication of Elkind et al. “The radiobiology of cultured mammalian cell”, Gordon and Breach (1967). Once the number of cells is sufficient (typically after 1 to 3 weeks), the first experiments are carried out using the process according to the invention. A cell sample is prepared: The cells are inoculated on glass coverslips in Petri dishes. A portion of these coverslips are contaminated with metals or pesticides or any other DNA-breaking chemical or biochemical agent at different concentrations. A further portion is not contaminated; it represents the spontaneous state. During contamination, the cells remain in the culture incubator at 37° C.
For the contaminated cells, characteristics are acquired corresponding to the state after an incubation time with the DNA-breaking chemical or biochemical agent. Said characteristics are represented by foci corresponding to the marker pH2AX. The cells on glass coverslips are then fixed, lysed and hybridized. The following procedure, known per se (Bodgi et al, “A single formula to describe radiation-induced protein relocalization: towards a mathematical definition of individual radiosensitivity”, J Theor Biol. 21 p 333:135-45.2013):
(§2) the cells are fixed in 3% paraformaldehyde and 2% sucrose for 15 minutes at ambient temperature and permeabilized in 20 mM HEPES buffer solution (4-(2-hydroxyethyl)-1-piperazine ethane sulfonic acid) at pH 7.4, 50 mM NaCl, 3 mM MgCl2, 300 mM sucrose, 0.5% Triton X-100 (a non-ionic surfactant having the formula t-Oct-C6H4-(OCH2CH2)×OH where x=9-10, CAS No. 9002-93-1, supplied for example by Sigma Aldrich) for 3 minutes. The glass coverslips are then washed in phosphate buffer saline (known as the acronym PBS) before immunological staining. The incubation took place for 40 min at 37° C. in PBS supplemented with 2% bovine serum albumin (known as the acronym BSA or fraction V, supplied for example by Sigma Aldrich) and was followed by a wash with PBS. Anti-pH2AX primary antibodies are used at a concentration of 1:800. The incubations with anti-mouse FITC or anti-rabbit TRITC secondary antibodies (1:100, supplied by Sigma Aldrich) were performed at 37° C. in 2% BSA for 20 minutes. Glass coverslips were treated with Vectashield™ containing DAPI (4,6-Diamidino-2-phenylindole) to label the nucleus. Staining with DAPI also makes it possible, indirectly, to determine the number of cells in phase G1 (nuclei with homogenous DAPI staining), in phase S (nuclei with numerous pH2AX foci), in phase G2 (nuclei with heterogeneous DAPI staining) and metaphases (visible chromosomes).
The results are acquired using these coverslips on an immunofluorescence microscope (Olympus model for example). The reading may be direct (typically by counting the foci on at least 50 cells in G0/G1 for each point) or using dedicated image analysis software, or on an automated microscope; preferably the software or automated microscope methods are calibrated with manual determinations.
(§3) The tables hereinafter summarize the results of numerous experiments which were carried out as described in the “Detailed description” section above.
(§4) In tables 3 and 4, “pH2AX” corresponds to the mean number of nuclear foci obtained with the marker pH2AX, 24 hours after contacting the cell sample with the chemical agent at the concentration C (NpH2AX(24 h, C)), and where “Micronuclei” corresponds to the mean number of micronuclei observed per 100 cells 24 hours after contacting the cell sample with the chemical agent at the concentration C(NMN(24 h, C)).

[2] = test system: pH2AX nuclear foci (DNA double-strand breaks); experiment: Single toxicity scale: reference concentration Cref and risk group prediction from NpH2AX(24 h)
Experimental: (i) if the reference concentration has not previously been determined by the chemical or biochemical agent to be studied, a cell sample is prepared by dispersion and/or amplification of so-called reference cells (sensitivity group I); a plurality of concentrations within a broad concentration range of said breaking agent (said concentration range ranging for example from nM to mM) is applied for a predetermined period of time (preferably 24 hours) on this cell sample; pH2AX immunofluorescence is performed with DAPI counterstaining which also enables on the same cell sample the analysis of micronuclei for all the concentrations applied.
(ii) Either the mean number of nuclear foci observed with the marker pH2AX at the observation times t and at the concentration C (this mean number being referred to as NpH2AX(t, C)), or the mean number of micronuclei per 100 cells at the observation times t and at the concentration C (this mean number being referred to as NMN(t, C)), or the standard error a corresponding to the error committed on these respective measurements which must be performed on at least 50 nuclei once (Gaussian standard error) or 3 independent experiments of 50 nuclei (standard error of the mean).
(iii) The so-called reference concentration Cref is the concentration giving:
NpH2AX(24 h,Cref)+2σ=2 or indeed NMN(24 h,Cref)+2σ=2%;
If for the cell sample NpH2AX(24 h, Cref)<=2 or NMN(24 h, Cref)<=0.5%, preferably NMN(24 h, Cref)<=1% or even more preferentially NMN(24 h, Cref)<=2%, then the genotoxic risk is considered to be low or described as “Group I”
The experimental data presented in table 4 above were used to determine the reference concentration Cref particularly for Pb(NO3)2 (Cref<1 μM) and CdCl2 (Cref=10 μM).
Table 5 presents numerical examples of correspondence between the single toxicity scale according to the invention and the corresponding clinical signs.

HMEC cells [3] = experiment: Micronuclei per 100 cells 24 h after contacting, Table 4 lower part (HMEC); conditions: line cell blank (below Hasp)
Experimental: as §1, §2
Counterstaining with DAPI (a DNA marker known to those skilled in the art) makes it possible to locate the nucleus to situate the cytoplasmic or nuclear location to quantify the micronuclei, which are complementary cell markers to the data on the foci.
as §3, §4

MRC9 (control cells) = experiment: pH2AX foci immunofluorescence 24 h after contacting, MRC9 control fibroblasts; conditions: for pH2AX(24 h) + 2xSEM / pH2AX(24 h): MRC9; for pH2AX(24 h): 24 hours after contacting
Experimental: as §2
Commercial MRC9 control fibroblasts were amplified according to the recommendations of the supplier (SIGMA-ALDRICH) until the number of cells sought was obtained. After obtaining a sufficient number of cells (generally after one to 3 weeks), the first experiments were conducted using the process according to the invention. The cells were inoculated on glass coverslips in Petri dishes. A portion of these coverslips was then contacted with the medium under test comprising 5FU at a given concentration presented in table 2 hereinafter.
(§5) After contacting with 5FU at a given concentration, the cells were stored in the culture incubator at 37° C. 24 hours after contacting with 5FU at a given concentration as presented in table 2, the mean number of nuclear foci obtained with the marker pH2AX was acquired. The acquisition of the results was carried out using these coverslips on an immunofluorescence microscope (Olympus model). The reading was performed directly by counting the foci obtained with the marker pH2AX on at least 50 cells in G0/G1 for each point or using dedicated image analysis software (imageJ).
In order to obtain results of sufficient statistical reliability to serve as a basis for diagnosis, 3 independent series of experiments were performed. The mean and standard errors of the mean (“SEM” or σ) of each of the numbers of foci acquired after 24 hours of contacting the control cells with 5FU at a given concentration was calculated and presented in table 2.

03HLS cells = experiment: pH2AX foci immunofluorescence 24 h after contacting, 03HLS patient skin cell line; conditions: for pH2AX(24 h): 24 hours after contacting
Experimental: as §2
For the line 03 HLS, a skin cell sample from a patient was sampled by biopsy via the “skin punch” method known to those skilled in the art. The cell sample was then placed in DMEM medium+20% sterile fetal calf serum. The cell sample was then transferred without delay to a specialized laboratory, so that the sample remained not more than 38 hours at ambient temperature.
On receipt, the cell sample from the biopsy was established in the form of an amplifiable 03HLS cell line according to a procedure well known to culture laboratories and those skilled in the art: using particularly the trypsin dispersion, the cells are once again diluted in replenished medium and so on until the number of cells sought is obtained.
(§6) After obtaining a sufficient number of cells (generally after one to 3 weeks), the first experiments were conducted using the process according to the invention. The GM02718, or 03HLS, line cells were inoculated on glass coverslips in Petri dishes. A portion of these coverslips was then contacted with 5FU at a concentration of 30 μM. By way of verification, a further portion of these coverslips was contacted with 5FU at a given concentration (see table 2, see FIG. 2 (B) for the cell line GM02718, respectively FIG. 2 (C) for the cell line 03HLS).
as §5
(§7) In order to obtain results of sufficient statistical reliability to serve as a basis for diagnosis, 3 independent series of experiments were performed. The mean and standard errors of the mean (“SEM” or σ) of each of the numbers of foci acquired after 24 hours of contacting the control cells with 5FU at a given concentration was calculated and presented in table 2 and in FIG. 2 (B) for the cell line GM02718, respectively FIG. 2 (C) for the cell line 03HLS.

GM02718 cells = experiment: pH2AX foci immunofluorescence 24 h after contacting, GM02718 cell line; conditions: for pH2AX(24 h) + 2xSEM / pH2AX(24 h): GM002718; for pH2AX(24 h): 24 hours after contacting
Experimental: as §2
The cell line GM02718 was amplified according to the recommendations of the supplier (Coriell Institute) until the number of cells sought was obtained.
as §6, §5, §7

For `[Cl][Cd][Cl]` [CdCl2], the pH2AX (HMEC cells [1]; 10 μM) was 1.9 foci, the pH2AX (HMEC cells [1]; 30 μM) was 3.7 foci and the pH2AX (HMEC cells [1]; 100 μM) was 8.3 foci. For the same molecule, the “Reference concentration Cref” value ([2]; NpH2AX(24 h) < 2, determined from data of table 4) was 10 µM, the “Prediction based on algorithm: concentration above which “Group III” risk” value ([2]; NpH2AX(24 h) > 8) was “predicted above 100 μM” and the Micronuclei (HMEC cells [3]; 10 μM) was 3.5 per 100 cells. The Micronuclei (HMEC cells [3]; 30 μM) was 9 per 100 cells and the Micronuclei (HMEC cells [3]; 100 μM) was 12.25 per 100 cells.

For `O=c1[nH]cc(F)c(=O)[nH]1` [5FU], the “pH2AX(24 h) + 2xSEM” value (MRC9 (control cells); 5FU 1.00 μM) was 1.97 foci, the “pH2AX(24 h)” value (MRC9 (control cells); 5FU 1.00 μM) was 1.16 foci and the “pH2AX(24 h) + 2xSEM” value (MRC9 (control cells); 5FU 3.00 μM) was 1.93 foci. For the same molecule, the “pH2AX(24 h)” value (MRC9 (control cells); 5FU 3.00 μM) was 1.38 foci, the “pH2AX(24 h) + 2xSEM” value (MRC9 (control cells); 5FU 10.00 μM) was 0.51 foci and the “pH2AX(24 h)” value (MRC9 (control cells); 5FU 10.00 μM) was 0.30 foci. The “pH2AX(24 h) + 2xSEM” value (MRC9 (control cells); 5FU 30.00 μM) was 2.01 foci, the “pH2AX(24 h)” value (MRC9 (control cells); 5FU 30.00 μM) was 1.18 foci and the “reference concentration Cref defined by NpH2AX(24 h, Cref)+2σ=2” value (MRC9 (control cells); control cell line MRC9) was 30 µM. The “pH2AX(24 h) + 2xSEM” value (03HLS cells; 03HLS, 5FU 1.00 μM) was 1.49 foci, the “pH2AX(24 h)” value (03HLS cells; 03HLS, 5FU 1.00 μM) was 1.40 foci and the “pH2AX(24 h) + 2xSEM” value (03HLS cells; 03HLS, 5FU 3.00 μM) was 2.26 foci. The “pH2AX(24 h)” value (03HLS cells; 03HLS, 5FU 3.00 μM) was 1.69 foci, the “pH2AX(24 h) + 2xSEM” value (03HLS cells; 03HLS, 5FU 10.00 μM) was 1.69 foci and the “pH2AX(24 h)” value (03HLS cells; 03HLS, 5FU 10.00 μM) was 1.63 foci. For the same molecule, the “pH2AX(24 h) + 2xSEM” value (03HLS cells; 03HLS, 5FU 30.00 μM) was 2.59 foci, the “pH2AX(24 h)” value (03HLS cells; 03HLS, 5FU 30.00 μM) was 2.00 foci and the “number of pH2AX foci” value (03HLS cells; 03HLS, 5FU concentration of 30 μM, 24 h) was roughly 2.59 foci. The genotoxic risk group (03HLS cells; cell line 03HLS at Cref 30 μM) was “group II”, the “pH2AX(24 h) + 2xSEM” value (GM02718 cells; 5FU 1.00 μM) was 3.32 foci and the “pH2AX(24 h)” value (GM02718 cells; 5FU 1.00 μM) was 2.70 foci. For the same molecule, the “pH2AX(24 h) + 2xSEM” value (GM02718 cells; 5FU 3.00 μM) was 2.43 foci, the “pH2AX(24 h)” value (GM02718 cells; 5FU 3.00 μM) was 2.41 foci and the “pH2AX(24 h) + 2xSEM” value (GM02718 cells; 5FU 10.00 μM) was 3.87 foci. For the same molecule, the “pH2AX(24 h)” value (GM02718 cells; 5FU 10.00 μM) was 2.96 foci, the “pH2AX(24 h) + 2xSEM” value (GM02718 cells; 5FU 30.00 μM) was 2.38 foci and the “pH2AX(24 h)” value (GM02718 cells; 5FU 30.00 μM) was 2.38 foci. For the same molecule, the “number of pH2AX foci” value (GM02718 cells; GM02718, 5FU concentration of 30 μM, 24 h) was “approximately 2.38 foci” and the genotoxic risk group (GM02718 cells; cell line GM02718 at Cref 30 μM) was “group II”.
